Where two headings read alike, the source gives them in different places.
Columns and labels:
Mouse = conditions: cited from earlier work
human = conditions: ref Material Safety Data Sheet (MSDS); cited from earlier work
α-glucosidase = biological target: T1, α-glucosidase (Saccharomyces cerevisiae, UniProt P53341); assay: α-Glucosidase inhibition assay (PNPG substrate); type: biochemical
T1 construct: purchased Sinopharm Group Chemical Reagent Co. (Shanghai, China)
Method: (§1) All of the other solvents and chemicals used were obtained from Sinopharm Group Chemical Reagent Co., Ltd. (Shanghai, China) and were of analytical grade. Sodium phosphate buffer (PBS) was purchased from Solarbio Co. (Beijing, China) and was prepared to make a concentration of 0.01 M aqueous solution (pH 7.2).
The activity of α-glucosidase was determined in a 96-well plate based on 4-Nitrophenyl […]-D-glucopyranoside (PNPG) as a substrate.

[1] = set-up: method as in PMID 9177723; conditions: rats, 56 mg of EGCG orally; cited from earlier work
[2] = Thermal stability (TG analysis); type: physicochemical; conditions: 30 to 400 °C, 10 °C/min, nitrogen
Method: The thermal stability behaviors of EGCG and PEGCG were investigated on a TG apparatus (SDT […], TA Instruments, New Castle, DE, USA). About 3.0 mg of each sample was used to perform the analysis by putting the powder on a TG pan. The sample was scanned from 30 to 400 °C with a heating rate of 10 °C/min under a nitrogen atmosphere.

[3] = set-up: method as in PMID 16302765, PMID 12499265; conditions: sodium phosphate buffer pH 7.4, 3 h; cited from earlier work
[4] = set-up: method as in PMID 9177723; conditions: humans, single oral intake of 97 mg; cited from earlier work
[5] = pH stability in alkalescent condition (HPLC); type: physicochemical; conditions: ethanol/PBS 80:20, pH 7.2, 37 °C, open air, 1.3 mM
Method: (§2) Since the intestine system is alkalescent, it is necessary to assess the stability of EGCG and PEGCG under this condition.
Equivalent molar concentrations (1.3 mM) of EGCG and PEGCG were incubated in Pyrex test tubes (20 × 1.6 cm, i.d.) in the open air at 37 °C, respectively, without any agitation. Aliquots (20 µL) of the incubation solution was periodically (1, 2, 5 h) sampled and subjected to HPLC analysis, respectively. HPLC condition was the same as Item 2.5.

[6] = Storage stability of powder in open air; type: physicochemical; conditions: room temperature, 60 d
Text: To study the storage stability of EGCG and PEGCG powder, […] of the two powders were kept in the open air at room temperature, respectively. After 60 days, aliquots of the two powders were sampled and subjected to HPLC analysis, respectively. The HPLC condition was the same as Item 2.5.

Solubility in PBS = type: physicochemical
Text: as §2

[7] = system: porcine pancreatic α-amylase; assay: α-Amylase inhibition assay; type: biochemical; conditions: ratio of IC50 values versus EGCG
Method: as §1

[8] = Mouse, acute toxicity, ref Material Safety Data Sheet (MSDS)

T1 sequence (P53341 whole entry): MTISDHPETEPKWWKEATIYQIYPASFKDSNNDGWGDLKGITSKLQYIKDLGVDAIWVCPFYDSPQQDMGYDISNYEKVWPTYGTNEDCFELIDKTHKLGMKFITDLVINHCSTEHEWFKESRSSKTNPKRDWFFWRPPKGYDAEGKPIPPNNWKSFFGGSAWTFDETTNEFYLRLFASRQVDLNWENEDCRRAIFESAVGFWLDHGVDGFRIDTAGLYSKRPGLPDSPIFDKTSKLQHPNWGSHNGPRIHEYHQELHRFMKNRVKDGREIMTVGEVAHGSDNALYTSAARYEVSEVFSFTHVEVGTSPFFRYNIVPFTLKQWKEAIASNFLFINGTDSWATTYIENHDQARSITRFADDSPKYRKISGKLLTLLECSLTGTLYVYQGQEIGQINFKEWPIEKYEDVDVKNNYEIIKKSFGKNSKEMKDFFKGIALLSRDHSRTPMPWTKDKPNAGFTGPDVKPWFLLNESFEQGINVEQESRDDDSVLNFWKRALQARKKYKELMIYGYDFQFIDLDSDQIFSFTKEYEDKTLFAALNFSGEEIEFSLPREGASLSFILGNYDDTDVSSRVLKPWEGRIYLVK
Chain of porcine pancreatic α-amylase (P06278 30-512): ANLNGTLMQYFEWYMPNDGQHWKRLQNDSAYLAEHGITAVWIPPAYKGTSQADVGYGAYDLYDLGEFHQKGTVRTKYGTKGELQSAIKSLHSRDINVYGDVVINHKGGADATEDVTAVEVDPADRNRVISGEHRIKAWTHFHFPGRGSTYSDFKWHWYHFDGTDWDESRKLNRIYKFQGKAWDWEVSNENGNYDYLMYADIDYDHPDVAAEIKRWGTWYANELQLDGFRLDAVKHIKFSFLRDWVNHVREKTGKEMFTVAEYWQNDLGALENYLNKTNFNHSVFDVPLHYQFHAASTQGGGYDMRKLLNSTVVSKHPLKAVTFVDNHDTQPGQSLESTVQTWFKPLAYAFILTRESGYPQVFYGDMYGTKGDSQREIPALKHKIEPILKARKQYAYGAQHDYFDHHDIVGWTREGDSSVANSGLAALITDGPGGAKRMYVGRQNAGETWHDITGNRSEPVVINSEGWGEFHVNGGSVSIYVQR

## CN(C)c1ccncc1 [4-dimethylaminopyridine (DMAP), 4-dimethylaminopyridine]
Mouse; [8]
  Acute toxicity grade: LD50 250 mg/kg, medium toxicity
human
  Harm to Human Health: Irritating to the eyes; eating poisonous

## O=C(O[C@@H]1Cc2c(O)cc(O)cc2O[C@@H]1c1cc(O)c(O)c(O)c1)c1cc(O)c(O)c(O)c1 [EGCG, (−)-Epigallocatechin gallate]
α-glucosidase
  IC50: 11.5 ± 0.02 µM
[1]
  absorbed after oral dose: 0.01%
[2]
  thermal decomposition temperature: 234.5 °C
[3]
  EGCG lost: 90%
[4]
  absorbed after oral dose: 0.32%
[5]
  degraded / hydrolyzed after 1 h: 93%
  degraded / hydrolyzed after 5 h: utterly degraded
[6]
  remained after storage: 45%

## CCCCCCCCCCCCCCCC(=O)Oc1c(O)cc([C@H]2Oc3cc(O)cc(O)c3C[C@H]2OC(=O)c2cc(O)c(O)c(O)c2)cc1O [PEGCG, 4′-O-palmitoyl EGCG]
α-glucosidase; 37 °C, PNPG substrate, read-out: IC50 for α-Glucosidase
  IC50: 0.22 ± 0.03 µM
α-glucosidase; ratio of IC50 values versus EGCG
  α-glucosidase inhibitory activity relative to EGCG: 52 times
α-glucosidase; ratio of IC50 values versus acarbose
  α-glucosidase inhibitory activity relative to acarbose: 0.68 times
Solubility in PBS
  solubility in PBS: insoluble in PBS
[2]
  thermal decomposition temperature: 311.19 °C
[7]
  α-amylase inhibitory activity relative to EGCG: 4.5 times
[5]
  degraded / hydrolyzed after 1 h: most of the PEGCG was hydrolyzed to EGCG and its dimers
  degraded / hydrolyzed after 5 h: 100%
[6]
  remained after storage: 78%

## c1ccncc1 [Pyridine]
Mouse; mouse, in vivo
  Acute toxicity grade: LD50 1580 mg/kg, mild toxicity
  LD50: LD50 1580 mg/kg, mild toxicity
human
  Harm to Human Health: Strong irritant; anesthetizes the central nervous system

## CC(=O)[O-].[Na+] [Sodium acetate]
Mouse; mouse, in vivo
  Acute toxicity grade: LD50 25,956 mg/kg, non-toxic
  LD50: LD50 25,956 mg/kg, non-toxic
human
  Harm to Human Health: None

## O=C([O-])[O-].[Na+].[Na+] [Sodium carbonate]
human
  Harm to Human Health: Irritant and corrosive

## CCN(CC)CC [Triethylamine]
Mouse; [8]
  Acute toxicity grade: medium toxicity
Mouse; mouse, in vivo
  LD50: 460 mg/kg
human
  Harm to Human Health: strong irritant to the respiratory tract; after inhaling can cause pulmonary edema or even death

Reference: paper PMC7828495, “Synthesis, Stability, and Antidiabetic Activity Evaluation of (−)-Epigallocatechin Gallate (EGCG) Palmitate Derived from Natural Tea Polyphenols” (Molecules, 2021)
